This is an account of results in patent US7122359B2, “Active-site engineering of nucleotidylyltransferases and general enzymatic methods for the synthesis of natural and “unnatural” UDP- and TDP-nucleotide sugars” (priority 2000, dated 2006).

Series [1] in a line: Specific activity of purified Ep (1 U = protein needed to produce 1 μmol TDP-D-glucose min^−1). It counts as biochemical, Salmonella enterica LT2. The note with it: purified to near homogeneity. An excerpt: Ep is encoded by rmlA, which was previously known as rfbA (Reeves et al. Trends Microbiol. 1996, 4, 495–502). The rmlA-encoded Ep was overexpressed in E. coli to provide the desired Ep as >5% of the total soluble protein. The corresponding Ep was purified to near homogeniety with a specific activity of 110 U mg^−1, a 2-fold improvement over the previously reported values. (See Lindquist, L.; Kaiser, R.; Reeves, P. R.; Lindberg, A. A. Eur. J. Biochem., 1993, 211, 763–770.) An (NH4)2SO4 precipitate of E. coli-prfbA-C crude extracts was dialyzed against buffer B (20 mM Tris.HCl, 1 mM EDTA, pH 7.5) The dialysate was resolved by anion exchange (DE52, 3×15 cm, 50 mL buffer B wash followed by a linear gradient of 0–500 mM NaCl, 1.0 mL min^−1) and the Ep fractions combined, concentrated and further resolved by FPLC gel filtration (S-200, 2×70 cm, 50 mM Tris.HCl, 200 mM NaCl, pH 7.5). The purified Ep was stored in aliquots (−80° C.) until used.
To evaluate the synthetic utility of purified thymidylyltransferase, Ep, α-D-hexopyranosyl phosphate, Mg^+2 and NTP were incubated at about 37° C. for about 30 min and the extent of product formation determined by HPLC. The results of these assays are illustrated in FIG. 2. Confirmation of product formation was based upon HPLC co-elution with commercially available standards and/or HPLC isolation and high resolution mass spectroscopy of the product. […]

Series [2] addresses T1, Salmonella enterica LT2 α-D-glucopyranosyl phosphate thymidylyltransferase (Ep) (Salmonella typhimurium, UniProt P26393).
T1 construct: made in house; host or cells: E. coli (E. coli-prfbA-C)
As to the kind of experiment: Ep-catalyzed conversion of aminodeoxy/acetamidodeoxy sugar phosphates with inorganic pyrophosphatase, HPLC (FIG. 4). It counts as biochemical. The note with it: for product formation with dTTP: 2.5 mM NTP, 5.0 mM sugar phosphate, 10 U inorganic pyrophosphatase, 30 min, 37° C. Here is the method: To evaluate the synthetic utility of thymidylyl-transferase, purified Ep, α-D-glucopyranosyl phosphate, Mg^+2, NTP and inorganic pyrophosphatase were incubated at 37° C. for 30 min and the extent of product formation determined by HPLC. The inorganic pyrophosphatase was included to drive the reaction forward. A reaction containing 2.5 mM NTP, 5.0 mM sugar phosphate, 5.5 mM MgCl2 and 10 U inorganic pyrophosphatase in a total volume of 50 μL 50 mM potassium phosphate buffer, pH 7.5 at 37° C. was initiated by the addition of 3.52 U Ep (1 U=the amount of protein needed to produce […] TDP-D-glucose min^−1). The reaction was incubated with slow agitation for 30 min at 37° C., quenched with MeOH (50 μL), centrifuged (5 min, 14,000×g) and the supernatant was stored at −20° C. until analysis by HPLC. Samples (30 μL) were resolved on a Sphereclone 5u SAX column (150×4.6 mm) fitted with a SecurityGuard ™ cartridge (Phenomenex; Torrance, Calif.) using a linear gradient (50–200 mM potassium phosphate buffer, pH 5.0, 1.5 mL min^−1, A275 nm).
The results of these assays are illustrated in FIG. 4. For each assay, confirmation of product formation was based upon high resolution mass spectroscopy of HPLC-isolated products and, also in some cases, HPLC co-elution with commercially available standards.
A reaction containing 2.5 mM NTP, 5.0 mM sugar phosphate, 5.5 mM MgCl2 and 10 U inorganic pyrophosphatase in a total volume of 50 μL 50 mM potassium phosphate buffer, pH 7.5 at 37° C. was initiated by the addition of 3.52 U Ep (1 U=the amount of protein needed to produce 1 μmol TDP-α-D-glucose min^−1) The reaction was incubated with slow agitation for 30 min at 37° C., quenched with MeOH (50 μL), centrifuged (5 min, 14,000×g) and the supernatant was stored at −20° C. until analysis by HPLC. Samples (30 μL) were resolved on a Sphereclone 5u SAX column (250×4.6 mm) fitted with a guard column (30×4.6 mm) using a linear gradient (50–200 mM potassium phosphate buffer, pH 5.0, 1.5 mL min^−1, A275 nm).

In the next series the target is T2, wild-type Ep (Salmonella typhimurium, UniProt P26393).
T2 construct: made in house; host or cells: E. coli (E. coli-prfbA-C)
Description: Conversion of sugar phosphates by wild-type enzyme (FIG. 11). It is filed as biochemical, Salmonella enterica LT2. Here is the method:
(§1) FIG. 11. Percent conversion of sugar phosphates according to the present invention by wild-type and mutant enzymes. The alterations from native substrate (Glc-1-P,1) are highlighted in red. For the mutant pool, mutants Asp41Asn, Glu62Asp, Thr201A and Trp224His were pooled, concentrated and an aliquote constituting 60 μg of each mutant (corresponding to 3.5U Ep) was utilized for the assay.
Percent conversion was determined as described in Jiang, J., Biggins, J. B. & Thorson, J. S. A General Enzymatic Method for the Synthesis of Natural and “Unnatural” UDP- and TDP-Nucleotide Sugars. J. Am. Chem. Soc. 122, 6803–6804 (2000).
(§2) Assays for product formation and steady state kinetics were accomplished using conditions similar to those described. in Jiang, J., Biggins, J. B. & Thorson, J. S. A General Enzymatic Method for the Synthesis of Natural and “Unnatural” UDP- and TDP-Nucleotide Sugars. J. Am. Chem. Soc. 122, 6803-6804 (2000). For the mutant pool assays, an aliquot which contained an eqimolar ratio of each mutant (60 μg) was utilized.

Series [3] has as its system mutant pool (Asp41Asn, Glu62Asp, Thr201A and Trp224His Ep mutants). Description: Conversion of sugar phosphates by pooled Ep mutants (FIG. 11). The conditions noted are these: 60 μg of each mutant. It counts as biochemical, Salmonella enterica LT2. The procedure: as §1
As a rapid means to assay the entire pool of the four newly constructed mutants, the mutants were combined and the mixture directly tested for ability to convert compounds (2), (108), (89), (102), (38), and (127). […] Those substrates turned over include […] and (127), the two sugar phosphates not accepted or poorly accepted by wild-type Ep.
as §2

The next series has as its target T3, Ep Trp224His mutant (Salmonella typhimurium, UniProt P26393, W224H).
T3 construct: made in house
As to the kind of experiment: Individual mutant analysis: Trp224His. It counts as biochemical, Salmonella enterica LT2. The note with it: deconvolution of the mutant pool.
Source text: (§3) Thr102Ala, on the other hand, was responsible for the 2-fold increase in the conversion of (108). […] Yet, cumulatively, this small set of directed mutants was able to successfully turn over three of four targeted “unnatural” substrates. […] This Ep variant will serve as an excellent foundation for second generation double mutants.
as §2

Another series concerns the target T4, Ep Thr102Ala mutant (Salmonella typhimurium, UniProt P26393, T201A).
T4 construct: made in house
As to the kind of experiment: Individual mutant analysis: Thr102Ala. The note with it: over wild-type Ep. It counts as biochemical, Salmonella enterica LT2.
Source text: as §3, §2

Series [4] has as its target T1, Salmonella enterica LT2 α-D-glucopyranosyl phosphate thymidylyltransferase (Ep). As to the kind of experiment: Ep-catalyzed conversion of α-D-hexopyranosyl phosphates and NTP to NDP-sugars, HPLC (FIG. 2). It is filed as biochemical. The note with it: 5 mM NTP, 10 mM sugar phosphate, 30 min, 37° C. The text has this: FIG. 2. E^p-Catalyzed Conversion of Substrates wherein superscript indicators (a)–(h) are as follows: (a) Percent conversion=[Ap/(AP+AT)]×100, where AP is the NDP-sugar product peak integration and AT represents the NTP peak integration. HRMS for all observed products reported in the supporting information. (b) Standard retention times: TDP, […]; TTP, 7.2 mm; UDP, 4.0 mm; UTP, 6.1 mm. (c) Commercially available. (d) Coelutes with commercially available standard. […] (f) Adjusted for the 2:1 α/β-28. (g) In contrast to previously published studies (See Lindquist, L; Kaiser, R.; Reeves, P. R.; Lindberg, A. A., Eur J. Biochem, 1993, 211, 763–770). (h) No products observed.
To evaluate the synthetic utility of purified thymidylyltransferase, Ep, α-D-hexopyranosyl phosphate, Mg^+2 and NTP were incubated at about 37° C. for about 30 min and the extent of product formation determined by HPLC. The results of these assays are illustrated in FIG. 2. Confirmation of product formation was based upon HPLC co-elution with commercially available standards and/or HPLC isolation and high resolution mass spectroscopy of the product. […] A reaction containing 5 mM NTP, 10 mM sugar phosphate and 5.5 mM MgCl2 in a total volume of 50 μL 50 mM potassium phosphate buffer, pH 7.5 at 37° C. was initiated by the addition of 3.52 U Ep (1 U=the amount of protein needed to produce 1 μmol TDP-D-glucose min^−1). The reaction was incubated with slow agitation for 30 min at 37° C., quenched with MeOH (50 μL), centrifuged (5 min, 14,000×g) and the supernatant was stored at −20° C. until analysis by HPLC. Samples (20 μL) were resolved on a Sphereclone 5 u SAX column (250×4.6 mm) fitted with a guard column (30×4.6 mm) using a linear gradient (20–60 mM potassium phosphate buffer, pH 5.0, 1.5 mL min^−1, A275 nm).

Series [5] has the same target. It is filed as biochemical. The note with it: secondary plot of Lineweaver-Burke plots, assays in triplicate.
Source text: FIG. 10. […] The conditions for the Ep assay conditions and HPLC resolution of reactants and products were similar to those described in Jiang, J., Biggins, J. B. & Thorson, J. S. A General Enzymatic Method for the Synthesis of Natural and “Unnatural” UDP- and TDP-Nucleotide Sugars. J. Am. Chem. Soc. 122, 6803–6804 (2000).
as §2

Consider “Ep: Salmonella enterica LT2 rmlA-encoded α-D-glucopyranosyl phosphate thymidylyltransferase, overexpressed in E. coli and purified”, for which, in series [1], the specific activity worked out at 110 U mg^−1.
As for `CC(=O)NC[C@H]1O[C@H](OP(=O)([O-])[O-])[C@H](O)[C@@H](O)[C@@H]1O.[Na+].[Na+]` [compound 86, Disodium-(6-acetamido-6-deoxy-α-D-glucopyranosyl) Phosphate], in series [2], the “product formation with dTTP” value is “less activity”. Also, the “increase of product formation with UTP in comparison to dTTP” value in series [2] (FIG. 4) was determined as 8 fold. Moreover, the “acceptance / conversion by wild-type Ep” value at wild-type Ep is recorded as “not well-accepted”. Also, in series [3], the “turnover by the mutant pool” value is listed as “turned over”. Besides, the “conversion by Trp224His mutant” value on Ep Trp224His mutant was “responsible for converting”.
Consider `CC(=O)N[C@H]1[C@@H](OP(=O)(O)O)O[C@H](CO)[C@@H](O)[C@@H]1O` [compound 108, 2-acetamido-2-deoxy-α-D-glucopyranosyl phosphate, reference compound], for which the “product formation with dTTP” value in series [2] is “well-tolerated”. For the same compound, the “acceptance / conversion by wild-type Ep” value on wild-type Ep is reported as “poor conversion”. Besides, the “increase in conversion by Thr102Ala mutant” value on Ep Thr102Ala mutant is reported as 2 fold.
As for `O=C(O)[C@H]1O[C@H](OP(=O)(O)O)[C@H](O)[C@@H](O)[C@@H]1O` [compound 127, α-D-glucopyranuronic acid 1-(dihydrogen phosphate)], the “acceptance / conversion by wild-type Ep” value on wild-type Ep is “not accepted”. In addition, in series [3], the “turnover by the mutant pool” value was “turned over”. Besides, the “conversion by Trp224His mutant” value at Ep Trp224His mutant is “responsible for converting”.
One may read the Km as the concentration of substrate that gives half-maximal velocity. As a reminder, the Vmax is the rate approached at saturating substrate. For the compound `O=P(O)(O)O[C@H]1O[C@H](CO)[C@@H](O)[C@H](O)[C@H]1O` [compound 2, α-D-glucopyranosyl phosphate], in series [4], the “activity as Ep substrate with TTP” value is “prefers”. For the same compound, in series [5], the Michaelis-Menten constant (Km) turned out to be 300 ± 100 µM and the Vmax came out at 0.03 ± 0.02 mM/min.
